How the values were obtained:
[1] = SOD activity (cytochrome C method); assay type: biochemical
Source text: FIGS. 1A-1H show the structures of certain generic and specific definitions of compounds suitable for use in the present invention. With reference to FIG. 1C, mimetics of the invention can be of Formula I or Formula II, or dimeric forms thereof, an example of a dimeric form being shown in FIG. 1D. With reference to FIG. 1H, the SOD activities of certain of the depicted compounds are shown in Table 1 (as measured by the cytochrome C method): […]

A549 cells = assay: 3H-thymidine incorporation (DNA synthesis) in A549 cells; assay type: cell-based, human; conditions: 4 μM, 24 hours
Protocol: FIG. 16. A549 cells were grown 50% confluence in 24 well plates in complete media. Cells were then incubated for 24 hours with the above concentrations of drug and ^3H-thymidine (to assess DNA synthesis). After three washes in PBS, the cells were homogenized and the radioactivity counted. At 4 μM MnTE-2-PyP, there was a 50% inhibition of incorporation of ^3H-thymidine.

[2] = tested on: tumor angiogenesis, R230 mammary adenocarcinoma cells in Z-chambers; assay: Tumor angiogenesis in Z-chambers (microvessel density); assay type: in vivo, Fisher-344 rats; conditions: 6 mg/kg i.p. 24 hours before implantation
Protocol: FIG. 5. Antiangiogenesis: Animals were pretreated with different SOD mimetics (6 mg/kg i.p.) 24 hours before implantation of 2.5 mil./ml R230 mammary adenocarcinoma cells in Z-chambers.
Immunohistochemistry was carried out using procedures described by Hsu et al (Hsu et al., j. Histochem. Cytochem. 29:577-580 (1981)). Briefly, paraffin embedded tissues were sectioned (5 microns) and antigen retrieval was performed using citrate buffer from Biogenex (San Ramon, Calif.). Tissues were treated with primary antibody against tissue transglutaminase (TG100, 1:10, endothelial cell marker, non-reactive to Factor XIIIa) (Neomarkers, Calif.) for 1 hour at 37° C. Secondary antibody (Jackson ImmunoResearch. PA) and tertiary. (Vector, Calif.) antibodies were incubated for 25 minutes at 37° C. and the location of the reaction was visualized with 3,3-diaminobenzidine tetrahydrochloride Sigma (St. Louis, Mo.). Slides were counterstained with hematoxylin and mounted with coverslips. Controls for the immunohistochemistry were treated with mouse IgG instead of primary antibody and were negative in any reactivity. […] Microvessel density was calculated as described by Weidner et al (Weidner et al, J. New Engl. J. Med. 324:1-8 (1991)). Briefly, six hot spots or areas with highest vessels marked by the vessel marker at a high power field (400×) per sample section were selected and number of blood vessel counted. […]

[3] = tested on: R3230 AC mammary adenocarcinoma; assay: R3230 AC mammary adenocarcinoma growth and radiation response in Fischer 344 rats; assay type: in vivo; conditions: for tumor growth as compared to control (Day 20 Tumor Ratio, Days for 5-fold tumor growth): 6 mg/kg/day IP Day 1 to 20, FIG. 2C
Protocol: FIGS. 2A-2C. (FIG. 2A) B16 melanoma tumor treated with SOD mimetic. The mimetic was 10113 at a dose of 6 mg/kg given intraperitoneally qd for 5 days. (FIG. 2B) Mammary adenocarcinoma treated with SOD mimetic. 10113 was given intraperitoneally at a dose of 6 mg/kg/day for 16 days. Radiation therapy (RT), 21 Gy, was given on day 8 or 9. (FIG. 2C) Fischer 344 rats with subcutaneously implanted R3230 AC mammary adenocarcinomas received Radiation treatment (21 Gy Day 1), AEOL 10113 (6 mg/kg/day IP Day 1 to 20), the combination Radiation and AEOL 10113 (as above), or Control treatment.
The effect of the MnTE-2-PyP (manganese(III) tetrakis(N-ethylpyridinium-2-yl)porphyrin) on tumor growth and radiation response in two tumor models has been tested. […] The effect of the SOD mimetic. MnTE-2-PyP, on tumor growth and radiation response has been tested in a rat model.
[…] AC mammary adenocarcinoma was transplanted on the right hind leg. When the tumors reached 0.8-1 cm in diameter, the rats were randomized into 4 groups to receive 1) Saline (control); 2) Drug 10150; 3) Drug 10113; 4) Drug 10201. Drugs were given daily in dose of […] i.p. The tumor size was measured twice a week. (FIG. 3).

## CC[n+]1ccccc1-c1c2nc(c(-c3cccc[n+]3CC)c3ccc([n-]3)c(-c3cccc[n+]3CC)c3nc(c(-c4cccc[n+]4CC)c4ccc1[n-]4)C=C3)C=C2.[Mn+3] [Compound 10113, manganese(III)tetrakis(N-ethylpyridinium-2-yl)porphyrin]
[1]
  SOD activity: 10,648 U/mg
A549 cells
  inhibition of incorporation of 3H-thymidine: 50%
[2]
  tumor angiogenesis: Significant inhibition of tumor angiogenesis
[3]; listed as AEL 10113
  tumor growth as compared to control (Day 20 Tumor Ratio, Days for 5-fold tumor growth): limited tumor growth
[3]; listed as AEOL 10113
  tumor growth as compared to control (Day 20 Tumor Ratio, Days for 5-fold tumor growth): significantly (p<0.05) inhibited tumor growth
[3]; radiation 21 Gy plus mimetic
  post-radiation tumor regrowth: significant inhibition of the post-radiation tumor regrowth
[3]; radiation 21 Gy plus mimetic, listed as AEL 10113
  effect on tumor response to radiation: did not diminish the effect of radiation on tumor growth
[3]; radiation 21 Gy plus mimetic, listed as MnTE-2-PyP
  effect on tumor response to radiation: does not protect tumor from irradiation
[3]; rat model, SOD mimetic alone
  inhibition of tumor growth: > 50%
